# Measurements taken from PubChem BioAssay AID1963424 (Molecular Pharmacology Branch, DTP, NCI, 2024).
# Test system: 327498-153-R-J2-PDC complex spheroid growth, % test/control
# Assay: Anticancer human tumor 327498-153-R-J2-PDC patient-derived uterine carcinosarcoma cell line growth inhibition [Asc]
# Conditions: for viability, T/C: stronger effect = lower value
# How it was run: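 Tumor cells were grown as multicellular spheroids with stromal HUVEC and mesenchymal stem cells and treated singly or in combination. Concentrations fell in half-log steps from the clinical Cmax, or from 10 microM where none was known.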
# [1] = curve of first compound, second compound 0.03 µM
# [2] = curve of first compound, second compound 0.0949 µM
# [3] = curve of first compound, second compound 0.3 µM
# [4] = curve of first compound, second compound 0.949 µM
# [5] = curve of first compound, second compound 3 µM
# 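Also: spheroids exposed to compound for 7 days after 3 days of growth.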
# 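For viability, T/C in this document: 100% = DMSO vehicle control wells.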
smiles,measurement,setting,value
NC(=O)C(=Cn1cnc(-c2cc(C(F)(F)F)cc(C(F)(F)F)c2)n1)c1cncnc1 + CCN1C(C(=O)NC23CCC(C(=O)O)(CC2)CC3)C(c2cccc(Cl)c2F)C2(C(=O)Nc3cc(Cl)ccc32)C12CCCCC2,IC50,[1],24.8 nM
same,IC50,[2],8.01 nM
same,IC50,[3],< 0.949 nM
same,IC50,[4],< 0.949 nM
same,IC50,[5],< 0.949 nM
same,"viability, T/C","second compound 0.03 µM, first compound 0.000949 µM",102%
same,"viability, T/C","second compound 0.03 µM, first compound 0.003 µM",83.2%
same,"viability, T/C","second compound 0.03 µM, first compound 0.00949 µM",75.5%
same,"viability, T/C","second compound 0.03 µM, first compound 0.03 µM",49.4%
same,"viability, T/C","second compound 0.03 µM, first compound 0.0949 µM",8.49%
same,"viability, T/C","second compound 0.03 µM, first compound 0.3 µM",1.47%
same,"viability, T/C","second compound 0.0949 µM, first compound 0.000949 µM",73.5%
same,"viability, T/C","second compound 0.0949 µM, first compound 0.003 µM",70.8%
same,"viability, T/C","second compound 0.0949 µM, first compound 0.00949 µM",45.9%
same,"viability, T/C","second compound 0.0949 µM, first compound 0.03 µM",16.1%
same,"viability, T/C","second compound 0.0949 µM, first compound 0.0949 µM",5.19%
same,"viability, T/C","second compound 0.0949 µM, first compound 0.3 µM",0.5%
same,"viability, T/C","second compound 0.3 µM, first compound 0.000949 µM",40.5%
same,"viability, T/C","second compound 0.3 µM, first compound 0.003 µM",33.2%
same,"viability, T/C","second compound 0.3 µM, first compound 0.00949 µM",22.8%
same,"viability, T/C","second compound 0.3 µM, first compound 0.03 µM",5.64%
same,"viability, T/C","second compound 0.3 µM, first compound 0.0949 µM",1.54%
same,"viability, T/C","second compound 0.3 µM, first compound 0.3 µM",0.36%
same,"viability, T/C","second compound 0.949 µM, first compound 0.000949 µM",9.07%
same,"viability, T/C","second compound 0.949 µM, first compound 0.003 µM",5.81%
same,"viability, T/C","second compound 0.949 µM, first compound 0.00949 µM",5.57%
same,"viability, T/C","second compound 0.949 µM, first compound 0.03 µM",1.96%
same,"viability, T/C","second compound 0.949 µM, first compound 0.0949 µM",0.72%
same,"viability, T/C","second compound 0.949 µM, first compound 0.3 µM",0.32%
same,"viability, T/C","second compound 3 µM, first compound 0.000949 µM",4.84%
same,"viability, T/C","second compound 3 µM, first compound 0.003 µM",2.37%
same,"viability, T/C","second compound 3 µM, first compound 0.00949 µM",1.32%
same,"viability, T/C","second compound 3 µM, first compound 0.03 µM",1%
same,"viability, T/C","second compound 3 µM, first compound 0.0949 µM",0.92%
same,"viability, T/C","second compound 3 µM, first compound 0.3 µM",0.41%
CCN1CCN(Cc2ccc(Nc3ncc(F)c(-c4cc(F)c5nc(C)n(C(C)C)c5c4)n3)nc2)CC1 + CCN1C(C(=O)NC23CCC(C(=O)O)(CC2)CC3)C(c2cccc(Cl)c2F)C2(C(=O)Nc3cc(Cl)ccc32)C12CCCCC2,IC50,[1],> 1000 nM
same,IC50,[2],28.8 nM
same,IC50,[3],< 3.16 nM
same,IC50,[4],< 3.16 nM
same,IC50,[5],< 3.16 nM
same,"viability, T/C","second compound 0.03 µM, first compound 0.00316 µM",86.8%
same,"viability, T/C","second compound 0.03 µM, first compound 0.01 µM",84.2%
same,"viability, T/C","second compound 0.03 µM, first compound 0.0316 µM",77.1%
same,"viability, T/C","second compound 0.03 µM, first compound 0.1 µM",52.4%
same,"viability, T/C","second compound 0.03 µM, first compound 0.316 µM",48.4%
same,"viability, T/C","second compound 0.03 µM, first compound 1 µM",53.3%
same,"viability, T/C","second compound 0.0949 µM, first compound 0.00316 µM",68%
same,"viability, T/C","second compound 0.0949 µM, first compound 0.01 µM",68.4%
same,"viability, T/C","second compound 0.0949 µM, first compound 0.0316 µM",48.3%
same,"viability, T/C","second compound 0.0949 µM, first compound 0.1 µM",31.7%
same,"viability, T/C","second compound 0.0949 µM, first compound 0.316 µM",39.8%
same,"viability, T/C","second compound 0.0949 µM, first compound 1 µM",39%
same,"viability, T/C","second compound 0.3 µM, first compound 0.00316 µM",34.3%
same,"viability, T/C","second compound 0.3 µM, first compound 0.01 µM",26.6%
same,"viability, T/C","second compound 0.3 µM, first compound 0.0316 µM",18.2%
same,"viability, T/C","second compound 0.3 µM, first compound 0.1 µM",15.4%
same,"viability, T/C","second compound 0.3 µM, first compound 0.316 µM",17.9%
same,"viability, T/C","second compound 0.3 µM, first compound 1 µM",21.3%
same,"viability, T/C","second compound 0.949 µM, first compound 0.00316 µM",9.27%
same,"viability, T/C","second compound 0.949 µM, first compound 0.01 µM",8.09%
same,"viability, T/C","second compound 0.949 µM, first compound 0.0316 µM",6.59%
same,"viability, T/C","second compound 0.949 µM, first compound 0.1 µM",7.13%
same,"viability, T/C","second compound 0.949 µM, first compound 0.316 µM",8.2%
same,"viability, T/C","second compound 0.949 µM, first compound 1 µM",11.3%
same,"viability, T/C","second compound 3 µM, first compound 0.00316 µM",3.59%
same,"viability, T/C","second compound 3 µM, first compound 0.01 µM",3.67%
same,"viability, T/C","second compound 3 µM, first compound 0.0316 µM",2.51%
same,"viability, T/C","second compound 3 µM, first compound 0.1 µM",3.55%
same,"viability, T/C","second compound 3 µM, first compound 0.316 µM",4.83%
same,"viability, T/C","second compound 3 µM, first compound 1 µM",8.39%
Cc1c(S(C)(=O)=O)c(-c2cc(F)cc(N3CCN(c4ccc(NS(=O)(=O)c5ccc(NC(CCN6CCC(C(=O)OCCCP(=O)(O)O)CC6)CSc6ccccc6)c(S(=O)(=O)C(F)(F)F)c5)cc4)CC3)c2)c(-c2ccc(Cl)cc2)n1C(C)C (stereo unspecified),"viability, T/C",compound 0.1 µM,94.6% [middle of 14 runs]
same,"viability, T/C",compound 0.316 µM,96.1% [middle of 14 runs]
same,"viability, T/C",compound 1 µM,94.4% [middle of 14 runs]
same,"viability, T/C",compound 3.16 µM,90.3% [middle of 14 runs]
same,"viability, T/C",compound 10 µM,166% [middle of 14 runs]
same,IC50,"compound alone, run of 09/27/2022",> 10000 nM
